Compound: T1, C[C@H]1CNCCN1c1nccc(-c2noc3c2CCC[C@@]32CCCc3sc(N)c(C#N)c32)n1 [BI-2493]
Test: 1 - AUC of viability dose-response curve (sensitivity) (fraction); higher = more sensitive
Conditions: 5 days
Experimental: (§1)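 PRISM pooled barcoded cancer cell line viability screen (Broad Institute) with BI-2493 at 8 doses in threefold dilutions from 0.00457 to 10 µmol/L, 5-day treatment; curves fitted per cell line. IC50 is undefined (placeholder) for resistant lines. AUC is capped at 1, and sensitivity is reported as 1 − AUC.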

Test System	1 - AUC of viability dose-response curve
TGBC52TKB_BILIARY_TRACT	0.255
ACCMESO1_PLEURA	0.00668
A204_SOFT_TISSUE	0.163
EFM192A_BREAST	0.0526
42MGBA_CENTRAL_NERVOUS_SYSTEM	0.073
MHHNB11_AUTONOMIC_GANGLIA	0.177
EMTOKA_ENDOMETRIUM	0.0999
HS611T_HAEMATOPOIETIC_AND_LYMPHOID_TISSUE	< 0
RD_SOFT_TISSUE	0.0771
HDMB03_CENTRAL_NERVOUS_SYSTEM	0.129
CAL78_BONE	0.0497
NCIH1915_LUNG	0.0137
PC3_PROSTATE	0.0397
SCC3_HAEMATOPOIETIC_AND_LYMPHOID_TISSUE	0.0243
NCIH1792_LUNG	0.342
LC1SQSF_LUNG	0.255
COV644_OVARY	0.157
ICC12_BILIARY_TRACT	0.0946
TASK1_CENTRAL_NERVOUS_SYSTEM	0.0438
YH13_CENTRAL_NERVOUS_SYSTEM	0.0914
SKES1_BONE	0.128
AGS_STOMACH	0.313
9505BIK_PANCREAS	0.321
BICR16_UPPER_AERODIGESTIVE_TRACT	0.263

Test System	1 - AUC of viability dose-response curve
HAC2_OVARY	0.157
MDAMB231_BREAST	0.0666
TTC642_SOFT_TISSUE	0.0875
MEL290_UVEA	0.105
BHY_UPPER_AERODIGESTIVE_TRACT	0.0642
HUO9_BONE	0.0106
RCK8_HAEMATOPOIETIC_AND_LYMPHOID_TISSUE	0.0825
KP3_PANCREAS	0.133
NCIH2004RT_SOFT_TISSUE	0.0737
RKO_LARGE_INTESTINE	0.0968
NCIH23_LUNG	0.199
JURLMK1_HAEMATOPOIETIC_AND_LYMPHOID_TISSUE	0.169
TE10_OESOPHAGUS	0.146
OCILY132_HAEMATOPOIETIC_AND_LYMPHOID_TISSUE	0.0816
KMRC1_KIDNEY	0.0333
TCCSUP_URINARY_TRACT	0.0247
MG63_BONE	0.0826
TGW_AUTONOMIC_GANGLIA	0.123
UO31_KIDNEY	0.0602
NCIH1048_LUNG	0.0696
COGN278_AUTONOMIC_GANGLIA	0.0701
GRANTA519_HAEMATOPOIETIC_AND_LYMPHOID_TISSUE	0.0332
SNU410_PANCREAS	0.0692
G292CLONEA141B1_BONE	0.0653

Test System	1 - AUC of viability dose-response curve
KKU055_BILIARY_TRACT	0.156
PANC0504_PANCREAS	0.286
NCIH82_LUNG	0.0218
CHLA57_BONE	0.211
SKM1_HAEMATOPOIETIC_AND_LYMPHOID_TISSUE	0.446
SKNBE2_AUTONOMIC_GANGLIA	0.206
MDAMB175VII_BREAST	0.0449
T24_URINARY_TRACT	0.047
KELLY_AUTONOMIC_GANGLIA	0.101
JHOS2_OVARY	0.0182
ICC9_BILIARY_TRACT	0.225
BT12_SOFT_TISSUE	0.17
HCC1806_BREAST	0.0665
HT115_LARGE_INTESTINE	0.229
KYSE140_OESOPHAGUS	0.0648
NCIH838_LUNG	0.0686
SCLC21H_LUNG	0.0414
SNU685_ENDOMETRIUM	0.0102
SKMEL30_SKIN	0.0152
COLO792_SKIN	0.221
SNU886_LIVER	0.211
IHH4_THYROID	0.0625
MPP89_PLEURA	0.0335
TE4_OESOPHAGUS	0.0912

Test System	1 - AUC of viability dose-response curve
SNU308_BILIARY_TRACT	0.0812
C33A_CERVIX	0.131
HDMYZ_HAEMATOPOIETIC_AND_LYMPHOID_TISSUE	0.00919
OCIP5X_OVARY	0.00791
JAR_PLACENTA	0.242
SNUC2A_LARGE_INTESTINE	0.0882
LXF289_LUNG	0.103
SNU216_STOMACH	0.0735
OC314_OVARY	0.113
RH4_SOFT_TISSUE	0.0866
NCIH1838_LUNG	0.0993
HCC1419_BREAST	0.0762
CALU1_LUNG	0.0917
NP5_CENTRAL_NERVOUS_SYSTEM	0.108
OVTOKO_OVARY	0.123
SKNFI_AUTONOMIC_GANGLIA	0.112
NCIH1581_LUNG	0.0823
TC205_BONE	0.082
PANC1005_PANCREAS	0.121
UW228_CENTRAL_NERVOUS_SYSTEM	0.0946
NCIH2170_LUNG	0.0861
SNU489_CENTRAL_NERVOUS_SYSTEM	0.103
GB1_CENTRAL_NERVOUS_SYSTEM	0.00342
IGR39_SKIN	0.0609

Compound: T1, BI-2493
Test: not given
Conditions: 5 days
Experimental: as §1

Test System	IC50 of cell viability
TGBC52TKB_BILIARY_TRACT	1.47 µM
ACCMESO1_PLEURA	9.66 µM
A204_SOFT_TISSUE	4.24 µM
EFM192A_BREAST	> 10 µM
42MGBA_CENTRAL_NERVOUS_SYSTEM	> 10 µM
MHHNB11_AUTONOMIC_GANGLIA	4.36 µM
EMTOKA_ENDOMETRIUM	4.31 µM
HS611T_HAEMATOPOIETIC_AND_LYMPHOID_TISSUE	> 10 µM
RD_SOFT_TISSUE	9.09 µM
HDMB03_CENTRAL_NERVOUS_SYSTEM	4.5 µM
CAL78_BONE	7.37 µM
NCIH1915_LUNG	9.46 µM
PC3_PROSTATE	> 10 µM
SCC3_HAEMATOPOIETIC_AND_LYMPHOID_TISSUE	8.83 µM
NCIH1792_LUNG	1.04 µM
LC1SQSF_LUNG	> 10 µM
COV644_OVARY	7.18 µM
ICC12_BILIARY_TRACT	4.21 µM
TASK1_CENTRAL_NERVOUS_SYSTEM	7.76 µM
YH13_CENTRAL_NERVOUS_SYSTEM	> 10 µM
SKES1_BONE	6.06 µM
AGS_STOMACH	0.844 µM
9505BIK_PANCREAS	1.57 µM
BICR16_UPPER_AERODIGESTIVE_TRACT	5.24 µM

Test System	IC50 of cell viability
HAC2_OVARY	6.07 µM
MDAMB231_BREAST	7.4 µM
TTC642_SOFT_TISSUE	7.08 µM
MEL290_UVEA	> 10 µM
BHY_UPPER_AERODIGESTIVE_TRACT	5.93 µM
HUO9_BONE	9.56 µM
RCK8_HAEMATOPOIETIC_AND_LYMPHOID_TISSUE	4.38 µM
KP3_PANCREAS	6.52 µM
NCIH2004RT_SOFT_TISSUE	> 10 µM
RKO_LARGE_INTESTINE	7.43 µM
NCIH23_LUNG	3 µM
JURLMK1_HAEMATOPOIETIC_AND_LYMPHOID_TISSUE	3.42 µM
TE10_OESOPHAGUS	> 10 µM
OCILY132_HAEMATOPOIETIC_AND_LYMPHOID_TISSUE	7.21 µM
KMRC1_KIDNEY	8.1 µM
TCCSUP_URINARY_TRACT	9.48 µM
MG63_BONE	9.09 µM
TGW_AUTONOMIC_GANGLIA	4.67 µM
UO31_KIDNEY	9.54 µM
NCIH1048_LUNG	6.78 µM
COGN278_AUTONOMIC_GANGLIA	7.86 µM
GRANTA519_HAEMATOPOIETIC_AND_LYMPHOID_TISSUE	> 10 µM
SNU410_PANCREAS	9.47 µM
G292CLONEA141B1_BONE	> 10 µM

Test System	IC50 of cell viability
KKU055_BILIARY_TRACT	8.47 µM
PANC0504_PANCREAS	1.18 µM
NCIH82_LUNG	8.8 µM
CHLA57_BONE	3.06 µM
SKM1_HAEMATOPOIETIC_AND_LYMPHOID_TISSUE	0.316 µM
SKNBE2_AUTONOMIC_GANGLIA	4.48 µM
MDAMB175VII_BREAST	8.51 µM
T24_URINARY_TRACT	> 10 µM
KELLY_AUTONOMIC_GANGLIA	4.09 µM
JHOS2_OVARY	9.64 µM
ICC9_BILIARY_TRACT	4.52 µM
BT12_SOFT_TISSUE	5.51 µM
HCC1806_BREAST	5.35 µM
HT115_LARGE_INTESTINE	2.29 µM
KYSE140_OESOPHAGUS	> 10 µM
NCIH838_LUNG	7.55 µM
SCLC21H_LUNG	7.84 µM
SNU685_ENDOMETRIUM	9.5 µM
SKMEL30_SKIN	9.15 µM
COLO792_SKIN	7.62 µM
SNU886_LIVER	5.03 µM
IHH4_THYROID	7.16 µM
MPP89_PLEURA	9.24 µM
TE4_OESOPHAGUS	4.83 µM

Test System	IC50 of cell viability
SNU308_BILIARY_TRACT	8.63 µM
C33A_CERVIX	3.53 µM
HDMYZ_HAEMATOPOIETIC_AND_LYMPHOID_TISSUE	9.62 µM
OCIP5X_OVARY	9.58 µM
JAR_PLACENTA	3.54 µM
SNUC2A_LARGE_INTESTINE	> 10 µM
LXF289_LUNG	8.04 µM
SNU216_STOMACH	8.63 µM
OC314_OVARY	5.96 µM
RH4_SOFT_TISSUE	6.58 µM
NCIH1838_LUNG	> 10 µM
HCC1419_BREAST	7.93 µM
CALU1_LUNG	5.25 µM
NP5_CENTRAL_NERVOUS_SYSTEM	3.54 µM
OVTOKO_OVARY	4.32 µM
SKNFI_AUTONOMIC_GANGLIA	5.39 µM
NCIH1581_LUNG	8.08 µM
TC205_BONE	> 10 µM
PANC1005_PANCREAS	3.98 µM
UW228_CENTRAL_NERVOUS_SYSTEM	4.79 µM
NCIH2170_LUNG	> 10 µM
SNU489_CENTRAL_NERVOUS_SYSTEM	4.14 µM
GB1_CENTRAL_NERVOUS_SYSTEM	> 10 µM
IGR39_SKIN	5.87 µM
